Structures can show the parent of a compound that is named as a salt. Where two headings read alike, the source gives them in different places.
Columns and labels:
[1] = system: Xanthomonas bacterial isolates; assay type: cell-based, Xanthomonas perforans; details: 200 μg/ml, 3 days
Procedure: The bacterial isolates were also tested for sensitivity to the bactericides, streptomycin and copper using established procedures. All strains were tested for growth on media with either streptomycin sulfate (200 μg/ml) or copper sulfate (pentahydrate) 200 μg/ml (0.8 mM)) after 3 days, [38].

[2] = system: bacterial spot disease on tomato; details: cited from earlier work
[3] = Collier, zone III, Florida 47, 20 strains isolated (r19)
[4] = Collier, zone III, Grape, 18 strains isolated (r22)
[5] = Collier, zone III, Grape, 20 strains isolated (r21)
[6] = Collier, zone III, Large Fruit, 19 strains isolated (r23)
[7] = Collier, zone III, Roma, 20 strains isolated (r20)
[8] = Decatur, GA, zone V, Large Fruit, 19 strains isolated (r39)
[9] = Decatur, GA, zone V, Large Fruit, 20 strains isolated (r41)
[10] = Decatur, GA, zone V, Large Fruit, 20 strains isolated (r43)
[11] = Gadsden, zone V, Large Fruit, 19 strains isolated (r37)
[12] = Gadsden, zone V, Large Fruit, 20 strains isolated (r35)
[13] = Manatee, zone IV, Large Fruit, 20 strains isolated (r25)
[14] = Manatee, zone IV, Large Fruit, 20 strains isolated (r27)
[15] = Manatee, zone IV, Large Fruit, 20 strains isolated (r29)
[16] = Manatee, zone IV, Large Fruit, 20 strains isolated (r31)
[17] = Manatee, zone IV, Large Fruit, 20 strains isolated (r33)
[18] = Miami Dade, zone I, Large Fruit, 13 strains isolated (r13)
[19] = Miami Dade, zone I, Large Fruit, 15 strains isolated (r9)
[20] = Miami Dade, zone I, Large Fruit, 20 strains isolated (r11)
[21] = Miami Dade, zone I, Plum, 20 strains isolated (r15)
[22] = Palm Beach, zone II, Heirloom varieties, 14 strains isolated (r17)
[23] = Totals, 377 strains isolated (r45)

| Compound | Bactericide Resistance: number of resistant strains [1, 3] | Bactericide Resistance: number of resistant strains [1, 4] | Bactericide Resistance: number of resistant strains [1, 5] | Bactericide Resistance: number of resistant strains [1, 6] | Bactericide Resistance: number of resistant strains [1, 7] | Bactericide Resistance: number of resistant strains [1, 8] | Bactericide Resistance: number of resistant strains [1, 9] | Bactericide Resistance: number of resistant strains [1, 10] | Bactericide Resistance: number of resistant strains [1, 11] | Bactericide Resistance: number of resistant strains [1, 12] | Bactericide Resistance: number of resistant strains [1, 13] | Bactericide Resistance: number of resistant strains [1, 14] | Bactericide Resistance: number of resistant strains [1, 15] | Bactericide Resistance: number of resistant strains [1, 16] | Bactericide Resistance: number of resistant strains [1, 17] | Bactericide Resistance: number of resistant strains [1, 18] | Bactericide Resistance: number of resistant strains [1, 19] | Bactericide Resistance: number of resistant strains [1, 20] | Bactericide Resistance: number of resistant strains [1, 21] | Bactericide Resistance: number of resistant strains [1, 22] | also measured |
| --- | --- | --- | --- | --- | --- | --- | --- | --- | --- | --- | --- | --- | --- | --- | --- | --- | --- | --- | --- | --- | --- |
| [H]/N=C(/N)N[C@H]1[C@H](O)[C@@H](O)[C@H](O[C@@H]2O[C@@H](C)[C@](O)(C=O)[C@H]2O[C@@H]2O[C@@H](CO)[C@H](O)[C@@H](O)[C@@H]2NC)[C@@H](N/C(N)=N\[H])[C@@H]1O [St, streptomycin sulfate] | 0 | 0 | 0 | 0 | 0 | 0 | 0 | 0 | 0 | 0 | 0 | 0 | 0 | 1 | 0 | 0 | 0 | 19 | 0 | 0 | Bactericide Resistance: number of resistant strains [1, 23]: 20; Bactericide Resistance: number of resistant strains ([1]; Totals, 377 strains isolated (r45), listed as streptomycin): streptomycin resistant strains were found in two of our survey collection areas |
| [Cu+2].[OH-].[OH-] [Copper hydroxide] | – | – | – | – | – | – | – | – | – | – | – | – | – | – | – | – | – | – | – | – | Significant difference between treatment and untreated control: Foliar Rating ([2]; 2008, TN, Ref [3]): No; Significant difference between treatment and untreated control: Marketable Yield ([2]; 2008, TN, Ref [3]): No; Significant difference between treatment and untreated control: AUDPC ([2]; 2009, OH, Ref [4]): No; Significant difference between treatment and untreated control: Marketable Yield ([2]; 2009, OH, Ref [4]): No; Significant difference between treatment and untreated control: Foliar Rating ([2]; 2009, OH, Ref [4], foliar symptoms lower on copper treated plots, fruit symptoms not): Yes^f; Significant difference between treatment and untreated control: AUDPC ([2]; 2010, FL, Ref [6]): Yes^h; Significant difference between treatment and untreated control: Foliar Rating ([2]; 2010, FL, Ref [6]): No^h; Significant difference between treatment and untreated control: Marketable Yield ([2]; 2010, FL, Ref [6]): No |
| O.O.O.O.O.O=S(=O)([O-])[O-].[Cu+2] [Cu, copper sulfate (pentahydrate)] | 20 | 14 | 20 | 19 | 20 | 19 | 20 | 20 | 19 | 20 | 20 | 20 | 20 | 20 | 20 | 13 | 15 | 20 | 20 | 14 | Bactericide Resistance: number of resistant strains [1, 23]: 377; Bactericide Resistance: number of resistant strains ([1]; Totals, 377 strains isolated (r45), listed as copper): all current field strains were found to be resistant |

Source: patent US9580726B2, “Tomato plants comprising transgenic event Bs2-X5” (priority 2013, dated 2017)
